How the values were obtained:
Format in all cases: in vivo
[1] = test system: Pentylenetetrazole seizures; experiment: Anticonvulsant activity, pentylenetetrazole seizures in mice (oral ED50); conditions: based on equimolar valproic acid equivalents
Text: (§1) In a comparison of anticonvulsant activities of
(§2) the oral ED50 based on equimolar valproic acid equivalents are established by standard procedures.

[2] = test system: Pentylenetetrazole seizures; experiment: Anticonvulsant activity, pentylenetetrazole seizures in rats (oral ED50); conditions: Rattus norvegicus, based on equimolar valproic acid equivalents
Text: as §1, §2

[3] = Bioavailability study, blood plasma levels in mouse; conditions: po, 200 mg/kg, equimolar doses, 30 minutes after administration, read-out: peak blood plasma levels
Procedure: (§3) In a bioavailability study carried out with (A) and (C) above in various animal species, the peak blood plasma levels of oral, equimolar doses are determined according to standard procedures, 30 minutes after drug administration.

[4] = Bioavailability study, blood plasma levels in rat; conditions: po, 200 mg/kg, equimolar doses, 30 minutes after administration, read-out: peak blood plasma levels
Procedure: as §3

[5] = Bioavailability study, blood plasma levels and AUC in dog; conditions: po, 25 mg/kg, equimolar doses
Procedure: as §3
*Area under the curve value for 0-7 hours.

Compound	oral ED50, Pentylenetetrazole seizures (mice) [1]	ED50 [2]	Cmax at 0.5 h [3]	Cmax at 0.5 h [4]	AUC at 7 h ([5]; 0-7 hours, read-out: AUC (Area under the curve value for 0-7 hours))	Cmax at 0.5 h ([5]; 30 minutes after administration, read-out: peak blood plasma levels)	ED50 ([1]; Mus musculus, po)
CCCC(CCC)C(=O)O [A, 2-propylpentanoic acid]	< 800 mg/kg	355 mg/kg	134000 ng/g	84100 ng/g	82300 ng·h/mL	65200 ng/g	–
CCCC(CCC)C(=O)[O-].[Na+] [B, sodium valproate]	–	415 mg/kg	–	–	–	–	282 mg/kg
